# Measured values reported in patent US6083969A, “1,3- and 2,3-diarylcycloalkano and cycloalkeno pyrazoles as selective inhibitors of cyclooxygenase-2 and antiinflammatory agents” (Ortho-McNeil Pharaceutical, Inc., priority 1999, dated 2000).
# Tests used:
# COX-1 [1] = molecular target: T1, COX-1 (Homo sapiens, UniProt P23219); assay: Human platelet thromboxane B2 production (via COX-1); type: cell-based; conditions: human platelets, TXB2 production; read-out: P5: COX 1 Human Platelet IC50
# T1 construct: Remove the platelet-rich plasma (PRP) and dilute the PRP 1:20 with 0.9% NaCl; endogenous in cells; host or cells: human platelets (platelet-rich plasma of one volunteer)
# T1 sequence (P23219 24-599): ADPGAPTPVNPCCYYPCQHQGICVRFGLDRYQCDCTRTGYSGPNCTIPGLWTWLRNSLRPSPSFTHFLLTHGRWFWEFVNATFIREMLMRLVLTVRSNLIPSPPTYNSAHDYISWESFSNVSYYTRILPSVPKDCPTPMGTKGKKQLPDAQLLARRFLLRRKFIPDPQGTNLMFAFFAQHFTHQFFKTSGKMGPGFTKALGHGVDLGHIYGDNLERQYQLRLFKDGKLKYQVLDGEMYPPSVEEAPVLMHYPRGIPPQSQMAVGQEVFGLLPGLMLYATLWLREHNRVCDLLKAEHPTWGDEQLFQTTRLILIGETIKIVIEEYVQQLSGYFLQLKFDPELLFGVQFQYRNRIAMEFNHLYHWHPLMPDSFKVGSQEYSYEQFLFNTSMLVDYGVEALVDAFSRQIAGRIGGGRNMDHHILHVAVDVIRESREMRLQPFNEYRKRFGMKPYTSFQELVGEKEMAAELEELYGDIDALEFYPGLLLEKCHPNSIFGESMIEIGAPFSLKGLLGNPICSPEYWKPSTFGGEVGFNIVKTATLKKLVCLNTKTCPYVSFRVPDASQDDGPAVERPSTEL
# Method: HUMAN […] THROMBOXANE B2 PRODUCTION (via COX-1)
# Procedure 5 was used to determine thromboxane B2 (TXB2) production (via COX-1) in human platelets as follows:
# Draw blood from one volunteer into heparinized tubes then spin at RT for 15 to 20 minutes at 1,000 RPM. Remove the platelet-rich plasma (PRP) and dilute the PRP 1:20 with 0.9% NaCl containing 14.4U heparin/mL. Add 180 μL of the diluted PRP to each well of a 96-well plate and incubate at 37° C. for 5 minutes. Then add 20 μL vehicle (HBSS with 1% DMSO) or drug and incubate for 15 minutes at 37° C. Add 10 μl calcium ionophore and incubate 15 minutes at 37° C. Stop the reaction on slush ice for 5 minutes and assay supernatants immediately for TXB2 production via RIA or EIA.
# Prepare all drugs at 10 mM in DMSO by diluting the drug in HBSS at a 1.100 ratio with 1% DMSO to 100 μM. Add 20 μl to PRP (1:10 ratio) to obtain 10 μM final concentration. The calcium ionophore is prepared by using 7 mg/mL free acid calcium ionophore in DMSO, which is warmed until the ionophore goes into solution. Just prior to use, dilute the solution 1:25 with HBSS.
# [2] = molecular target: T2, human prostaglandin H2 synthase type I (COX-1) (Homo sapiens, UniProt P23219); assay: Human prostaglandin H2 synthase type I (COX-1) homogenate assay (transfected COS-7 cells, PGE2 formation); type: biochemical; conditions: COS-7 homogenate; for inhibition at 10 µM: read-out: P6: COX 1 Homogenized Cell % Inhibition
# T2 construct: expressed in transfected cells; host or cells: COS-7 (African Green Monkey Kidney)
# T2 sequence (P23219 24-599): as above
# Method: HUMAN PROSTAGLANDIN H2 SYNTHASE--TYPE I (COX-1) HOMOGENATE ASSAY (SINGLE CONCENTRATION)
# Procedures 6 and 7 were used to assess COX-1 activity in a homogenized cell assay as follows:
# (§1) COS-7 (African Green Monkey Kidney) cells are maintained in a suitable medium, and are trypsinized and plated at a density of 1×10^6 cells/well of a 6 well plate prior to assay. Approximately 24 hours later, cells are transiently transfected with a plasmid containing the human COX-1 gene using the lipofectamine method. Two days later, the cell-free homogenate is prepared by subjecting the cells to a polytron followed by centrifugation at 9,000×g. COX activity, initiated by the addition of […] arachidonic acid to the 9,000×g supernatant, is monitored in the presence of vehicle or drug. Product (PGE2) formation is quantitated by radioimmunoassay. Activity, reported as percent inhibition of PGE2 produced, is calculated as follows: [formula]
# [3] = molecular target: T3, human prostaglandin H2 synthase type II (COX-2) (Homo sapiens, UniProt P35354); assay: Human prostaglandin H2 synthase type II (hCOX-2) homogenate assay (transfected COS-7 cells, PGE2 formation); type: biochemical; parameters: expressed in transfected cells; host or cells: COS-7 (African Green Monkey Kidney); conditions: for inhibition at 10 µM: read-out: P3: COX 2 Homogenized Cell % Inhibition; for IC50: read-out: P4: COX 2 Homogenized Cell IC50
# T3 sequence (P35354 18-604): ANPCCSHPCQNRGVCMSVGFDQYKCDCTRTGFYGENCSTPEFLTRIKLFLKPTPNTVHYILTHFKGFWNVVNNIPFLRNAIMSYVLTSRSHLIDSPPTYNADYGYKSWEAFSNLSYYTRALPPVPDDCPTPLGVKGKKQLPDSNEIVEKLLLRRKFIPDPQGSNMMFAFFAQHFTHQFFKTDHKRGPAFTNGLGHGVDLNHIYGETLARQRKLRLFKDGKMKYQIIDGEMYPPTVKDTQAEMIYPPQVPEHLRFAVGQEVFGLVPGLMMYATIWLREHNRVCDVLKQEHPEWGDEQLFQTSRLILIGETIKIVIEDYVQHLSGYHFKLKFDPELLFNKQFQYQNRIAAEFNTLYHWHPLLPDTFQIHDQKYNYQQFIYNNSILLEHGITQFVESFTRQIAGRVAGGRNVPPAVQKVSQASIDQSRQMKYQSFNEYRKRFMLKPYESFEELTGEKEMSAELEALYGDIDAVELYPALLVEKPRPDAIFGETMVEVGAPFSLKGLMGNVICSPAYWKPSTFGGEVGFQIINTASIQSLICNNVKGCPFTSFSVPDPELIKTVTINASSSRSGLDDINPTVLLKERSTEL
# Method: HUMAN PROSTAGLANDIN H2 SYNTHASE TYPE II (hCOX-2) HOMOGENATE ASSAY (SINGLE CONCENTRATION)
# Procedures 3 and 4 were used to assess COX-2 activity in a homogenized cell assay as follows:
# as §1, with “COX-2” for “COX-1”
# [4] = molecular target: T3, human prostaglandin H2 synthase type II (COX-2); assay: Human prostaglandin H2 synthase type II (COX-2) whole cell assay (ECV-304 cells, PGE2 by radioimmunoassay); type: cell-based; parameters: endogenous in cells; host or cells: ECV-304; conditions: for inhibition at 10 µM / inhibition at 3 µM: read-out: P1: COX 2 Whole Cell % Inhibition; for IC50: read-out: P2: COX 2 Whole Cell IC50; for inhibition at 3 µM: @3 μM (superscript a)
# Method: HUMAN PROSTAGLANDIN H2 SYNTHASE TYPE II (COX-2) WHOLE CELL ASSAY (MULTIPLE CONCENTRATIONS)
# Procedures 1 and 2 were used to determine the ability of the compounds to inhibit human prostaglandin H2 synthase type II (COX-2) in a whole cell assay at multiple concentrations as follows:
# Approximately 28 h later, […] PMA and […] ionomycin (both final concentrations) are added to each well and incubated for an additional 16 h. Vehicle or test compounds in the amount of […] are incubated with the cells for five minutes prior to initiation of COX-2 enzyme activity by the addition of 30 μM arachidonic acid. Ten minutes later, an aliquot of the supernatant is withdrawn and the amount of PGE2 present quantitated by radioimmunoassay. Activity, reported as percent inhibition of PGE2 produced, is calculated as follows: [formula]
# COX-1 [5] = molecular target: T1, COX-1; assay: Human platelet thromboxane B2 production (via COX-1); type: cell-based; conditions: @3 μM (superscript b); human platelets, TXB2 production; read-out: P5: COX 1 Human Platelet % Inhibition
IC50 (COX-1 [1]) [nM],inhibition at 10 µM [2] [%],"inhibition at 10 µM ([3]; @10 μM, COS-7 homogenate) [%]",IC50 [4] [nM],inhibition at 3 µM (COX-1 [5]) [%],inhibition at 3 µM [4] [%],Compound,other results
> 10000,32,6,> 10000,–,–,"CS(=O)(=O)c1ccc(-n2nc(-c3ccc(F)cc3)c3c2C=CCC3)cc1 [Example 5a, 3-(4-Fluorophenyl)-4,5-dihydro-1-(4-methylsulfonylphenyl)-1H-indazole]",inhibition at 10 µM [4]: 9%
–,25,92,1560,–,–,"COc1ccc(-n2nc(-c3ccc(Cl)cc3)c3c2CCCCC3)cc1 [Example 8, 3-(4-Chlorophenyl)-1-(4-methoxyphenyl)-cycloheptano-[1,2-d]-pyrazole]",IC50 ([2]; read-out: P7: COX 1 Homogenized Cell IC50): 5300 nM; IC50 ([3]; COS-7 homogenate): 380 nM
> 10000,64,–,2510,–,–,"COc1ccc(-n2nc(-c3ccc(F)cc3)c3c2CCCCC3)cc1 [Example 9, 3-(4-Fluorophenyl)-1-(4-methoxyphenyl)-cycloheptano-[1,2-d]-pyrazole]",IC50 ([3]; COS-7 homogenate): 2500 nM
10000,24,26,–,–,–,"CS(=O)(=O)c1ccc(-n2nc(-c3ccc(Cl)cc3)c3c2CCCCC3)cc1 [Example 10, 3-(4-Chlorophenyl)-1-(4-methylsulfonylphenyl)-cycloheptano-[1,2-d]-pyrazole]",inhibition at 10 µM [4]: 5%
–,–,–,–,6,66,CS(=O)(=O)c1ccc(C(=O)C2CC(=O)CCC2=O)cc1 (centres unmarked) [Example 29f],–
–,–,–,610,24,–,CS(=O)(=O)c1ccc(-n2nc3c(c2-c2ccc(C(F)(F)F)cc2)CCC=C3)cc1 [Example 32c],–
–,–,–,–,35,87,CCOc1ccc2c(-c3ccc(F)cc3)nn(-c3ccc(S(C)(=O)=O)cc3)c2c1 [Example 32j],–
–,–,–,–,22,29,Fc1ccc(-n2nc(-c3ccc(Cl)cc3)c3ccc4[nH]c5ccc(F)cc5c4c32)cc1 [Example 32k],–

Compound,IC50 (COX-1 [1]) [nM],inhibition at 10 µM [2] [%],"inhibition at 10 µM ([3]; @10 μM, COS-7 homogenate) [%]",IC50 [4] [nM],inhibition at 3 µM (COX-1 [5]) [%],inhibition at 3 µM [4] [%],other results
"Cc1ccc(-n2nc(-c3ccc(Cl)cc3)c3c2CCCCC3)cc1 [Example 11, 3-(4-Chlorophenyl)-1-(4-methylphenyl)-cycloheptano-[1,2-d]-pyrazole]",–,74,–,640,–,–,inhibition at 10 µM [3]: 40%
